Like-named read-outs stand apart in the source and are kept apart here.
How the values were obtained:
IPOHE = experiment: greenhouse post-emergence herbicidal test; assay type: in vivo, Ipomoea hederacea; parameters: key to herbicidal activity against IPOHE found: rating on a scale from 0 to 100; details: post emergence
In short: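 Post-emergence greenhouse test: plants in loamy sand, sprayed at 1–15 cm height with aqueous spray liquor from 10% emulsion concentrates, kept at 10-25 °C or 20-35 °C by species. Damage scored 0–100 (100 = complete destruction), usually 20 days after treatment. Expected additive effect E from Colby: E=X+Y−(X·Y/100).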

MATCH = experiment: greenhouse post-emergence herbicidal test; assay type: in vivo, Matricaria recutita; parameters: key to herbicidal activity against MATCH found: rating on a scale from 0 to 100; details: post emergence
In short: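 Greenhouse pots, loamy sand substrate (~4.6% humus, ~69.9% sand). Spray applied once plants reached 1–15 cm. Scoring 0–100, day 20.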

Question: With `O=C(O)c1cc(C2CC2)nc2onc(C3CC3)c12` [I.1] as the molecule, how does the pest or weed control at 125 g/ha (IPOHE; Ipomoea hederacea, post-emergence, 480 h, single active, 125 g/ha a.i., read-out: herbicidal activity against IPOHE found) read?
Answer: 95%

Question: And the “herbicidal activity against IPOHE found” value (IPOHE; 6 days after treatment, g/ha a.i.: I.1 31.25, B.96 35, mixture 31.25+35)?
Answer: 70

Question: And the “herbicidal activity against IPOHE found” value (IPOHE; 6 days after treatment, g/ha a.i.: I.1 31.25, B.96 70, mixture 31.25+70)?
Answer: 70

Question: And the “herbicidal activity against IPOHE found” value (IPOHE; 6 days after treatment, g/ha a.i.: I.1 31.25, B.96 140, mixture 31.25+140)?
Answer: 70

Question: What about the “herbicidal activity against IPOHE found” value (IPOHE; 6 days after treatment, g/ha a.i.: I.1 62.5, B.96 140, mixture 62.5+140) of the same molecule?
Answer: 80

Question: What about the “herbicidal activity against IPOHE found” value (IPOHE; I.1 15.6 g/ha, B.103 7.5 g/ha a.i.) of the same molecule?
Answer: 20

Question: What about the “herbicidal activity against IPOHE found” value (IPOHE; I.1 15.62 g/ha, B.89 25 g/ha a.i.) of the same molecule?
Answer: 25

Question: What about the “herbicidal activity against IPOHE found” value (IPOHE; I.1 31.25 g/ha, B.103 15 g/ha a.i.) of the same molecule?
Answer: 70

Question: What about the “herbicidal activity against IPOHE found” value (IPOHE; I.1 31.25 g/ha, B.89 25 g/ha a.i.) of the same molecule?
Answer: 25

Question: And the “herbicidal activity against IPOHE found” value (IPOHE; I.1 62.5 g/ha, B.57 1 g/ha a.i.)?
Answer: 30

Question: What about the “herbicidal activity against IPOHE found” value (IPOHE; I.1 62.5 g/ha, B.89 12.5 g/ha a.i.) of the same molecule?
Answer: 30

Question: And the “herbicidal activity against IPOHE found” value (IPOHE; I.1 62.5 g/ha, B.89 25 g/ha a.i.)?
Answer: 30

Question: And the “herbicidal activity against IPOHE found” value (IPOHE; a.i. g/ha: I.1 15.6, B.190 62.5, 20 days after treatment)?
Answer: 50%

Question: What about the “herbicidal activity against IPOHE found” value (IPOHE; a.i. g/ha: I.1 31.25, B.190 62.5, 20 days after treatment) of the same molecule?
Answer: 65%

Question: What about the “herbicidal activity against IPOHE found” value (IPOHE; application rate a.i.: I.1 62.5 g/ha, B.40 (imazethapyr) 7.5 g/ha, alone or as mixture (composition 1.40)) of the same molecule?
Answer: 95

Question: And the “herbicidal activity against IPOHE found” value (IPOHE; g/ha a.i.: I.1 31.25, B.20 2, mixture 31.25+2)?
Answer: 25

Question: And the “herbicidal activity against IPOHE found” value (IPOHE; g/ha a.i.: I.1 31.25, B.24 1, mixture 31.25+1)?
Answer: 25

Question: And the pest or weed control at 31.25 g/ha (MATCH; Matricaria chamomilla, post-emergence, 480 h, I.1 alone 31.25 g/ha a.i., read-out: herbicidal activity against MATCH found)?
Answer: 0%

Question: And the pest or weed control at 125 g/ha (MATCH; Matricaria chamomilla, post-emergence, 480 h, I.1 alone 125 g/ha a.i., read-out: herbicidal activity against MATCH found)?
Answer: 0%

Question: And the pest or weed control at 62.5 g/ha (MATCH; Matricaria chamomilla, post-emergence, 480 h, 62.5 g/ha a.i., read-out: herbicidal activity against MATCH found)?
Answer: 50%

Question: And the pest or weed control at 31.25 g/ha (MATCH; Matricaria chamomilla, post-emergence, 480 h, I.1 31.25 g/ha a.i., read-out: herbicidal activity against MATCH found)?
Answer: 20%

Question: What about the pest or weed control at 62.5 g/ha (MATCH; Matricaria chamomilla, post-emergence, 480 h, I.1 62.5 g/ha a.i., read-out: herbicidal activity against MATCH found) of the same molecule?
Answer: 30%

Question: And the pest or weed control at 31.25 g/ha (MATCH; Matricaria chamomilla, post-emergence, 480 h, single active, 31.25 g/ha a.i., read-out: herbicidal activity against MATCH found)?
Answer: 15%

Question: And the pest or weed control at 62.5 g/ha (MATCH; Matricaria chamomilla, post-emergence, 480 h, single active, 62.5 g/ha a.i., read-out: herbicidal activity against MATCH found)?
Answer: 60%

Question: And the “herbicidal activity against MATCH found” value (MATCH; 6 days after treatment, g/ha a.i.: I.1 31.25, naptalam 50, mixture 31.25+50)?
Answer: 0

Question: And the “herbicidal activity against MATCH found” value (MATCH; 6 days after treatment, g/ha a.i.: I.1 31.25, naptalam 100, mixture 31.25+100)?
Answer: 0

Question: What about the “herbicidal activity against MATCH found” value (MATCH; 6 days after treatment, g/ha a.i.: I.1 62.5, naptalam 50, mixture 62.5+50) of the same molecule?
Answer: 10

Question: And the “herbicidal activity against MATCH found” value (MATCH; I.1 15.62 g/ha, B.95 1 g/ha a.i.)?
Answer: 10

Question: What about the “herbicidal activity against MATCH found” value (MATCH; I.1 31.25 g/ha, B.95 1 g/ha a.i.) of the same molecule?
Answer: 10

Question: What about the “herbicidal activity against MATCH found” value (MATCH; I.1 31.25 g/ha, B.95 2 g/ha a.i.) of the same molecule?
Answer: 10

Question: And the “herbicidal activity against MATCH found” value (MATCH; I.1 62.5 g/ha, B.167 62.5 g/ha a.i.)?
Answer: 0

Question: And the “herbicidal activity against MATCH found” value (MATCH; I.1 62.5 g/ha, B.167 125 g/ha a.i.)?
Answer: 0

Question: What about the “herbicidal activity against MATCH found” value (MATCH; I.1 62.5 g/ha, B.95 2 g/ha a.i.) of the same molecule?
Answer: 65

Question: What about the “herbicidal activity against MATCH found” value (MATCH; a.i. g/ha: I.1 20.8, B.192 62.5, 20 days after treatment) of the same molecule?
Answer: 60%

Question: What about the “herbicidal activity against MATCH found” value (MATCH; a.i. g/ha: I.1 20.8, B.79 25, 20 days after treatment) of the same molecule?
Answer: 60%

Question: And the “herbicidal activity against MATCH found” value (MATCH; a.i. g/ha: I.1 31.25, B.67 125, 20 days after treatment)?
Answer: 30%

Question: And the “herbicidal activity against MATCH found” value (MATCH; a.i. g/ha: I.1 31.25, B.67 125, 20 days after treatment, sub-table r36-r43)?
Answer: 30%

Question: And the “herbicidal activity against MATCH found” value (MATCH; a.i. g/ha: I.1 31.25, B.69 25, 20 days after treatment)?
Answer: 30%

Question: And the “herbicidal activity against MATCH found” value (MATCH; a.i. g/ha: I.1 62.5, B.191 225, 20 days after treatment)?
Answer: 30%

Question: And the “herbicidal activity against MATCH found” value (MATCH; a.i. g/ha: I.1 62.5, B.67 125, 20 days after treatment)?
Answer: 0%

Question: And the “herbicidal activity against MATCH found” value (MATCH; application rate a.i.: I.1 20.8 g/ha, B.107 (topramezone) 6 g/ha, alone or as mixture (composition 1.107))?
Answer: 60

Question: And the “herbicidal activity against MATCH found” value (MATCH; application rate a.i.: I.1 31.25 g/ha, B.87 (carfentrazone-ethyl) 1.75 g/ha, alone or as mixture (composition 1.87))?
Answer: 35

Question: What about the “herbicidal activity against MATCH found” value (MATCH; application rate a.i.: I.1 62.5 g/ha, B.84 (paraquat-dichloride) 17.5 g/ha, alone or as mixture (composition 1.84)) of the same molecule?
Answer: 80

Question: What about the “herbicidal activity against MATCH found” value (MATCH; application rate a.i.: I.1 62.5 g/ha, B.87 (carfentrazone-ethyl) 1.75 g/ha, alone or as mixture (composition 1.87)) of the same molecule?
Answer: 80

Question: What about the “herbicidal activity against MATCH found” value (MATCH; applied alone at 31.25 g/ha a.i.) of the same molecule?
Answer: 25

Question: What about the “herbicidal activity against MATCH found” value (MATCH; g/ha a.i.: I.1 31.25, B.24 2, mixture 31.25+2) of the same molecule?
Answer: 25

Question: And the “herbicidal activity against MATCH found” value (MATCH; g/ha a.i.: I.1 125, B.24 2, mixture 125+2)?
Answer: 75

Question: And the “herbicidal activity against MATCH found” value (MATCH; g/ha a.i.: I.1 125, B.63 0.5, mixture 125+0.5)?
Answer: 75
